Measurements: article PMC4691232 (Chemistry & Biology, 2015)
Entries after “also recorded” stand apart in the source; their conditions may differ.

Columns and labels:
WcbL [1] = target: T1, WcbL (Burkholderia pseudomallei, UniProt H7C745); assay: biochemical
WcbL [2] = target: T1, WcbL; assay: biochemical; type: binding

T1 sequence (H7C745 1-346): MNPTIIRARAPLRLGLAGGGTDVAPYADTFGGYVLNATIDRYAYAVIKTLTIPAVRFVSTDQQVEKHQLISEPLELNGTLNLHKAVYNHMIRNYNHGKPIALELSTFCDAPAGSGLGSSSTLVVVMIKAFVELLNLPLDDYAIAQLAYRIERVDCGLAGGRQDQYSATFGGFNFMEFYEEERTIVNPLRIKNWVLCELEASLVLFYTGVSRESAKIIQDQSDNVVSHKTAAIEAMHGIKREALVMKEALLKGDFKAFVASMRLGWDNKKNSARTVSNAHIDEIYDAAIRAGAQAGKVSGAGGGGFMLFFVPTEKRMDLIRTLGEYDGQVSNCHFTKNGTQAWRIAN

| SMILES | Ki (WcbL [1]) [µM] | activity against WcbL (structure-activity relationship study, in words) (WcbL [1]) | Kd (WcbL [2]) [µM] | cooperativity coefficient n (DSF binding) (WcbL [2]) |
| --- | --- | --- | --- | --- |
| N#Cc1coc2ccccc2c1=O [3-cyanochromone] | 10 ± 6 | – | – | – |
| N#Cc1coc2c(Cl)cc(Cl)cc2c1=O [6,8-dichloro-3-cyanochromone] | – | significantly weaker activity; also recorded: far less potent inhibitor | – | – |
| N#Cc1coc2ccc(Br)cc2c1=O [6-bromo-3-cyanochromone] | 12 ± 5 | very similar to those of the original compound | – | – |
| Nc1ncnc2c1ncn2[C@@H]1OC(COP(=O)(O)OP(=O)(O)OP(=O)(O)O)[C@@H](O)[C@H]1O (stereo partly shown) [ATP] | – | – | 33 ± 7 | 0.6 ± 0.06 |
| O=P(O)(O)OCC(O)C1OC(O)C(O)C(O)C1O [M7P, D-manno-α,β-D-heptose-7-phosphate] | – | – | 968 ± 37 | did not show any cooperativity |
| O=Cc1coc2ccccc2c1=O [chromone-3-carboxaldehyde] | – | significantly weaker activity; also recorded: much weaker IC50 | – | – |
| O=c1ccoc2ccccc12 [chromone] | – | significantly weaker activity; also recorded: does not inhibit WcbL | – | – |
